Experimental data published in patent US10457666B2, “Stable crystal form of tipiracil hydrochloride and crystallization method for the same” (TAIHO PHARMACEUTICAL CO., LTD., priority 2013, dated 2019).
Several values for one entry are separate records, joined by “and”; a condition that tells them apart may be missing. Equal values may be shown once.

What was measured:
[1] = Stability test (storage stability after preservation); type: physicochemical; details: preservation at 40° C. for six months; for change in powder X-ray diffraction pattern after preservation (storage stability): hydrochloride
Experimental: Crystal I, Crystal III, and Crystal II of tipiracil hydrochloride obtained in accordance with Example 1, Example 2, and Reference Example 1 respectively were tested for storage stability after preservation at a temperature of 40° C. for six months.

[2] = Test for measurement of electric charge amount by air transfer; type: physicochemical; details: for Amount of electric charge per unit mass, average value: average of 3 measurements; for Amount of electric charge per unit mass, average value / Amount of electric charge / Amount of electric charge per unit mass: air transfer 130 L/min, SUS electrifying tube, hydrochloride; for Amount of electric charge / Amount of electric charge per unit mass: individual measurements No. 1-3; for polarity of charge: relative to SUS membrane
Experimental: Electric charge amounts of Crystal I and Crystal III obtained in accordance with Example 1 and Example 2 respectively were measured by air transfer. Crystal I or Crystal III was put in a powder supply part of an electrifying tube (made of SUS, 24.6×500 mm), and was left for 10 minutes. The sample was transferred by air at a flow rate of 130 L/min and the electric charge amount was calculated from the current value at that time obtained from the electrifying tube. ? =−∫0^tIdt Q: Amount of electric charge [C] I: Current generated during measurement [A] t: Measuring time […]
The measurement was performed 5 times, of which 3 times that gave stable results were adopted. The average of the values of the 3 times was regarded as the measured value.

SMILES	amounts of analogous substances after preservation [1]	change in powder X-ray diffraction pattern after preservation (storage stability) [1]	Amount of electric charge per unit mass, average value [2]	Amount of electric charge [2]	Amount of electric charge per unit mass [2]	polarity of charge [2]	charge relative to Crystal I ([2]; comparison of Table 2 and Table 3)
Cl.N=C1CCCN1Cc1[nH]c(=O)[nH]c(=O)c1Cl [Crystal I, 5-chloro-6-(2-iminopyrrolidin-1-yl)methyl-2,4(1H,3H)-pyrimidinedione hydrochloride]	small and not increased	no change	1.0 × 10^−7 C/g	5.3 × 10^−8 C and 5.0 × 10^−8 C	1.1 × 10^−7 C/g and 9.7 × 10^−8 C/g and 9.8 × 10^−8 C/g	(positively-charged	–
Cl.N=C1CCCN1Cc1[nH]c(=O)[nH]c(=O)c1Cl [Crystal II, 5-chloro-6-(2-iminopyrrolidin-1-yl)methyl-2,4(1H,3H)-pyrimidinedione hydrochloride]	–	not the same	–	–	–	–	–
Cl.N=C1CCCN1Cc1[nH]c(=O)[nH]c(=O)c1Cl [Crystal III, 5-chloro-6-(2-iminopyrrolidin-1-yl)methyl-2,4(1H,3H)-pyrimidinedione hydrochloride]	small and not increased	no change	3.5 × 10^−7 C/g	2.0 × 10^−7 C and 2.1 × 10^−7 C and 1.8 × 10^−7 C	3.2 × 10^−7 C/g (2×) and 4.2 × 10^−7 C/g	(positively-charged	three times as much charge as Crystal I
